Values quoted from earlier work, collected in patent publication US12433863B2, “Pharmaceutical compositions and uses directed to lysosomal storage disorders” (INTRABIO LIMITED, priority 2016, dated 2025).

How the values were obtained:
[1] = system: rat model of an acute unilateral labyrinthectomy; details: Gunther et al. 2015; cited from earlier work
[2] = system: glycosphingolipid (GSL) biosynthesis; details: Patterson, 2006; cited from earlier work

CC(=O)N[C@@H](CC(C)C)C(=O)O [N-acetyl-L-leucine]
Effect on postural compensation [1]: significant effect

CCCCN1C[C@H](O)[C@@H](O)[C@H](O)[C@H]1CO [miglustat]
Benefit in clinical trial of substrate reduction therapy [2]: some benefit
